The text below walks through data of article PMC12715762, “Discovery of VU6052254: A Novel, Potent M1 Positive Allosteric Modulator” (ACS Chemical Neuroscience, 2025).

Molecules are shown by their SMILES. Entries after “also recorded” stand apart in the source; their conditions may differ.

For data set [1], the target named is Estrogen ERα (Homo sapiens, UniProt P03372). The data set is described as follows: Eurofins radioligand binding.
The target of data set [2] is CYP 3A4 (Homo sapiens, UniProt P08684). The experiment in a line: CYP450 inhibition. It is filed as in vitro ADME.
The test system of data set [3] is Sodium Channel, Site 2. The experiment in a line: Eurofins radioligand binding. Particulars: Site 2, Rat.
Data set [4] relates to CYP450. The data set is described as follows: time-dependent CYP450 inhibition. Particulars: result in words. It counts as in vitro ADME.
Data set [5] can be described thus: multispecies PK, summary. It counts as in vivo. Particulars: rat, dog, NHP, plasma, across nonclinical species.
Data set [6] is described as follows: IV/PO pharmacokinetics (dog). It counts as in vivo. Particulars: Dog (beagle).
Data set [7] has as its system Purinergic P2X. The experiment in a line: Eurofins radioligand binding. Particulars: Rat.
The target of data set [8] is Neuropeptide Y Y1 (Homo sapiens, UniProt P25929). The data set is described as follows: Eurofins radioligand binding.
For data set [9], the target named is Adrenergic α1B (Homo sapiens, UniProt P35368). The experiment in a line: Eurofins radioligand binding.
The target of data set [10] is Dopamine D1 (Homo sapiens, UniProt P21728). The data set is described as follows: Eurofins radioligand binding.
Data set [11] deals with C57Bl/6 mice. The data set is described as follows: phenotypic seizure liability assay (Racine scale). It counts as in vivo, mouse. As to the method:
min, with an isocratic hold for 0.5 min, before transitioning to 10% B over 0.05 min. The column was re-equilibrated (1 min) before the next sample injection. The total run time was 2.55 min, and the HPLC flow rate was 0.5 ml/min. The source temperature was set at 500 °C, and mass spectral analyses were performed using a Turbo-Ion spray source in positive ionization mode (5.0-kV spray voltage) and using multiple-reaction monitoring of transitions specific for the analytes. All data were analyzed using AB Sciex Analyst 1.5.1 software.
Brain plasma concentration ratio (Kp) was calculated by dividing brain concentration by plasma concentration for each animal. Unbound brain to unbound plasma concentration ratio (Kp,uu) is calculated using the following formula: Kp,uu = (Brain ng/g x brain fu)/(plasma ng/ml x plasma fu).
Pharmacokinetic profiles in rats following oral single escalating doses Single escalating oral dosing in Sprague-Dawley rats was performed at Frontage Laboratories according to their non-GLP Standard Operating Procedure and IACUC protocols. In short, compounds were formulated in 10% Tween 80 in water and dosed at 10 mg/kg. At different times, arterial blood was collected from a femoral artery catheter, and compound concentration was determined in plasma by LC-MS/MS following their non-GLP protocol. PK parameters were determined using Phoenix WinNonlin software (version 6.3). […]
Blood-brain barrier penetration was determined using MDR1-MDCK cell monolayers by Absorption Systems, following their protocol. […] Compounds concentration on either side of the monolayer was determined by LC-MS/MS and apparent permeability and efflux ratio were determined as described in Wang, Q. et al.1 […]
To evaluate induction of behavioral manifestation of seizure activity, C57Bl/6 mice received administration of vehicle or 100 mg/kg M1 PAM 5. […] Animals were monitored continuously and scored for behavioral manifestations of seizure activity at 5, 15, 30 min, and 1 h. Behavioral manifestations of seizures were scored using a modified Racine scoring system. […]

Data set [12] concerns the target Adrenergic β1 (Homo sapiens, UniProt P08588). The experiment in a line: Eurofins radioligand binding.
Data set [13] deals with Nicotinic Acetylcholine α1, Bungarotoxin (Homo sapiens, UniProt P02708+P07510+Q07001). The data set is described as follows: Eurofins radioligand binding. Particulars: read-out: % Inhibition at 10 µM.
For data set [14], the target named is Androgen (Testosterone) (Homo sapiens, UniProt P10275). The experiment in a line: Eurofins radioligand binding.
The target in data set [15] is GABAB1A (Homo sapiens, UniProt Q9UBS5). The data set is described as follows: Eurofins radioligand binding.
GABAB1A, sequence (Q9UBS5 15-961 limits assumed): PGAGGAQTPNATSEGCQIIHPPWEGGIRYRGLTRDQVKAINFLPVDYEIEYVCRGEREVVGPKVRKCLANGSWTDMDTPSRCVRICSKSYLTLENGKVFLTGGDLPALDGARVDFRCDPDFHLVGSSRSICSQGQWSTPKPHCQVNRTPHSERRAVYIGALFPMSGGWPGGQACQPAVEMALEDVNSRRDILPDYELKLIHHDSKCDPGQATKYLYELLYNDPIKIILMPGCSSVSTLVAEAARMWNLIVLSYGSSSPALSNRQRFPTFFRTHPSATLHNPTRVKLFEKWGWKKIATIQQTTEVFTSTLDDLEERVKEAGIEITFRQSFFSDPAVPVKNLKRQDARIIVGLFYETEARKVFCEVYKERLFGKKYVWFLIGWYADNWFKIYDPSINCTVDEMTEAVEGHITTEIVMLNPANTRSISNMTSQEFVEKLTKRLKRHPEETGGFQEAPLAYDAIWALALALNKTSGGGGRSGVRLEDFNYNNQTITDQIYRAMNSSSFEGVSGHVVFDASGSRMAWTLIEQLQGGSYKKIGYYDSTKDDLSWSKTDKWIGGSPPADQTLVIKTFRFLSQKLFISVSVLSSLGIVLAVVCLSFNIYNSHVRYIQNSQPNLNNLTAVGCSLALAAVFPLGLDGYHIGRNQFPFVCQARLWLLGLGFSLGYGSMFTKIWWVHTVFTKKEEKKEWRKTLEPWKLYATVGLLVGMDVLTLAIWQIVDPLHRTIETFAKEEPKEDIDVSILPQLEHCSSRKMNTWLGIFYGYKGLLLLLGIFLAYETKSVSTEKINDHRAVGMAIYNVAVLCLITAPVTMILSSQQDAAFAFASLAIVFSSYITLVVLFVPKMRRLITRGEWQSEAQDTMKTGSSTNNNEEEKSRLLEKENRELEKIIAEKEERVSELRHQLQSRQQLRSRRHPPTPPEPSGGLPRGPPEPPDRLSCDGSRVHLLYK
GABAB1A, sequence (O75899 42-941 partner): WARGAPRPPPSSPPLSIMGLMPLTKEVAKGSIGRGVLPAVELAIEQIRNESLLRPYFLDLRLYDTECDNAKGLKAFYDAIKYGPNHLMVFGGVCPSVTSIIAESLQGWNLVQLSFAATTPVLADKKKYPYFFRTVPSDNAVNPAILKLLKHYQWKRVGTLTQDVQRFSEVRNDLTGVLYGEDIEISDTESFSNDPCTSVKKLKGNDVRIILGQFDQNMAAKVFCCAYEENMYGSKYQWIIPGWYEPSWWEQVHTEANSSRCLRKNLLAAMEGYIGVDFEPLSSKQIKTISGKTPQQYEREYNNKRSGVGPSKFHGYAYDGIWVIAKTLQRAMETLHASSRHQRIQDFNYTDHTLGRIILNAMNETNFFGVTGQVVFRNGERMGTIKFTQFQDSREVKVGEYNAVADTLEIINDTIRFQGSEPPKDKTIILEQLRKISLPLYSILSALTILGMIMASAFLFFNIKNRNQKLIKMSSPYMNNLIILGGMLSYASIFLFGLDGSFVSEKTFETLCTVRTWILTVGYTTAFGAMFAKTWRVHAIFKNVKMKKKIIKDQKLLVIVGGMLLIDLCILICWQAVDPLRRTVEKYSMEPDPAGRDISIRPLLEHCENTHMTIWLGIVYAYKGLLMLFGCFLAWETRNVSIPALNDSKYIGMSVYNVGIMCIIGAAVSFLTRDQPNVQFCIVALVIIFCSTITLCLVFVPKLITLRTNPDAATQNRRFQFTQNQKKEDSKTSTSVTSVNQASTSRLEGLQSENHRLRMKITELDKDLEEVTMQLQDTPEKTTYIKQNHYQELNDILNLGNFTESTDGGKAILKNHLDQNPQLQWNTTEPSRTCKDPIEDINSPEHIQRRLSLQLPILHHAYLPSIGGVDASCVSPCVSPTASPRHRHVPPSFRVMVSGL

Androgen (Testosterone), sequence (P10275 whole entry): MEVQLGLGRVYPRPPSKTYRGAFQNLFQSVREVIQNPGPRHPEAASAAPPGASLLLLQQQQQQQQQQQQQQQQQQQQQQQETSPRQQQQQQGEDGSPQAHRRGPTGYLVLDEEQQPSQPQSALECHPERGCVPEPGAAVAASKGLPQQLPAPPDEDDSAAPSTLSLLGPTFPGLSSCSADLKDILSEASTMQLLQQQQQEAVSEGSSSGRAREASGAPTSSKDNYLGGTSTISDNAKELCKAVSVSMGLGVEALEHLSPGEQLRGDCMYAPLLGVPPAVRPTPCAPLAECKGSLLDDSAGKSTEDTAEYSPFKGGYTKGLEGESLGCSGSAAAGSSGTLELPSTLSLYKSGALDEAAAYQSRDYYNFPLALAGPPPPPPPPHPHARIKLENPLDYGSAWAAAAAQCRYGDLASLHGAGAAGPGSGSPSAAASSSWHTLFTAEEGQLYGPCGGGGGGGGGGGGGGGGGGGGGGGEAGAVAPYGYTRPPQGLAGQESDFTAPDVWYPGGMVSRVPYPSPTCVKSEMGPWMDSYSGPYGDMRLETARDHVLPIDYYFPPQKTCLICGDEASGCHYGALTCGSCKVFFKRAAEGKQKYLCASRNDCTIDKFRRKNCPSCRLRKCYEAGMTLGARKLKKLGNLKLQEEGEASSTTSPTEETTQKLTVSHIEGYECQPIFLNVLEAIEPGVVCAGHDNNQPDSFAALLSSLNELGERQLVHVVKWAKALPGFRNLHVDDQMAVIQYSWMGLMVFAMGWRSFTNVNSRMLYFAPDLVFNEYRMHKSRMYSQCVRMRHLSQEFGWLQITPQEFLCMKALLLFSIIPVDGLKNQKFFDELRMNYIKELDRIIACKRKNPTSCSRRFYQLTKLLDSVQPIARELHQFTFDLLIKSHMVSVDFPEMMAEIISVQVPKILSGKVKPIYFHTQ
Estrogen ERα, sequence (P03372 whole entry): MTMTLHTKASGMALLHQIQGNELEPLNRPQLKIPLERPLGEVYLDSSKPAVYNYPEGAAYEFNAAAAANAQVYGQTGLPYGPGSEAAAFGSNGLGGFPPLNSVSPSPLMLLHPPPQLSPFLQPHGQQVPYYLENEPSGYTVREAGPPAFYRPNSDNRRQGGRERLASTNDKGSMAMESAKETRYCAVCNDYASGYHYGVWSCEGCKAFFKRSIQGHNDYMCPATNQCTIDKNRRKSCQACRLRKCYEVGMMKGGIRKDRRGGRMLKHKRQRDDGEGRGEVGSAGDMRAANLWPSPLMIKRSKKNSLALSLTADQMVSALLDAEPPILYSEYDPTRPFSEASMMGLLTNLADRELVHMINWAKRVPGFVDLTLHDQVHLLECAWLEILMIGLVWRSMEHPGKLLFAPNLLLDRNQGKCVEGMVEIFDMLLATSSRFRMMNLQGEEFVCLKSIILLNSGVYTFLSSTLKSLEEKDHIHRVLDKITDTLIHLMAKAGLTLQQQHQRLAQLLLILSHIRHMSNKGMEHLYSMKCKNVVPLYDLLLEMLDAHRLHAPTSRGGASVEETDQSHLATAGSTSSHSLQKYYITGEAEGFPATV
Adrenergic β1, sequence (P08588 whole entry): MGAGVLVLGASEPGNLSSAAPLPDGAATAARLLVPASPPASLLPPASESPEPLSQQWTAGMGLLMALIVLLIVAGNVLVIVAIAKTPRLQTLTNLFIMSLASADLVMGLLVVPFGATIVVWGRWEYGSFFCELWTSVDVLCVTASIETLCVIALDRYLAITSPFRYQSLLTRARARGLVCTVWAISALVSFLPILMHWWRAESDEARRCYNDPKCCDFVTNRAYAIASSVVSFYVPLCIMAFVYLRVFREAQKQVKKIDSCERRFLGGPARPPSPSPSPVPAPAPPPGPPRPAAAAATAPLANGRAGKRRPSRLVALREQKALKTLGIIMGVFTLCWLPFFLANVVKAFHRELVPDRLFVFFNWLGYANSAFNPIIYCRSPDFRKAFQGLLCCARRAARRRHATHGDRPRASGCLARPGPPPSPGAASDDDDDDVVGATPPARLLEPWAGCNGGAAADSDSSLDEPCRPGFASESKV
CYP 3A4, sequence (P08684 whole entry): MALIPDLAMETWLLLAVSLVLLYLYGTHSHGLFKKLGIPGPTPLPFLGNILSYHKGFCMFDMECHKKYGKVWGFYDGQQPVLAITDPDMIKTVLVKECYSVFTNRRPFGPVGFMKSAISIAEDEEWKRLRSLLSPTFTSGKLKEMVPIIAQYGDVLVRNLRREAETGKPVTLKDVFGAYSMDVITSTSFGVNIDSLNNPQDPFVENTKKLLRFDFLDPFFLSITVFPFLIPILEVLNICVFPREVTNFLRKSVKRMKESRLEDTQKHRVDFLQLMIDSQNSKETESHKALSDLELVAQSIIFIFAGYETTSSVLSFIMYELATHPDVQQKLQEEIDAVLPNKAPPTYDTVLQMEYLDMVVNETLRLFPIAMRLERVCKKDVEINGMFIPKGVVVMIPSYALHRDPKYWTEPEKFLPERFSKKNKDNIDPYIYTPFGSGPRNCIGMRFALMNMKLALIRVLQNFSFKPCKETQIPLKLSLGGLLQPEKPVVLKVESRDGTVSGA
Dopamine D1, sequence (P21728 whole entry): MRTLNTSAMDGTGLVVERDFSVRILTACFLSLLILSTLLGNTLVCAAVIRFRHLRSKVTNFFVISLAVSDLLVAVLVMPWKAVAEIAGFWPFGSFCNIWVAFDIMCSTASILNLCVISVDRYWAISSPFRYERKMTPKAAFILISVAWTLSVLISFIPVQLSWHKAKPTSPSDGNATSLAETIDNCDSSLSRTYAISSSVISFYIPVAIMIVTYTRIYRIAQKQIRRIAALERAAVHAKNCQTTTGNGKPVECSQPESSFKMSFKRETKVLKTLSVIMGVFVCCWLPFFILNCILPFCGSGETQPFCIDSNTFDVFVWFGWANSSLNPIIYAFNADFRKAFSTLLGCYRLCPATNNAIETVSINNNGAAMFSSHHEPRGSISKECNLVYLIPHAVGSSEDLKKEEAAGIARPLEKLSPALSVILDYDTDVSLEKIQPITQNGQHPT

Consider `Cn1cc2c(-c3cc(F)c(CN4Cc5ncccc5C4=O)c(F)c3)ccc(C(C)(C)O)c2n1` [compound 7], for which the inhibition at 10 µM is 12% in [1]; -10% in data set [8]; 8% in data set [9]; 6% in [10]; 5% in data set [12]; 2% in data set [13]. In addition, the inhibition at 10 µM in data set [14] was -4%; in [15] it was 7%. This compound also had a half-maximal inhibitory concentration (IC50) in data set [2] of over 30 µM. The “% Inhibition at 10 µM” value in data set [3] is 22%; in data set [7] it was 4%. Besides, in data set [4], the “time-dependent CYP450 inhibition” value is on record as “no evidence of time-dependent inhibition; also recorded: no CYP450 inhibition or time-dependent CYP450 inhibition liabilities”. Moreover, the bioavailability in [5] (read-out: %F, multispecies) is over 65%. The clearance in [5] (read-out: Clp s, multispecies) was under 10 mL/min/kg; in [6] (plasma, 1 mg/kg iv, read-out: CLp) it was 8.4 mL/min/kg. Besides, in data set [6] (3 mg/kg po), the “F (%) po” value is 65%. Moreover, the half-life in data set [6] (plasma, 1 mg/kg iv, read-out: Elimination t1/2 (converted)) was 4.1 h. Also, the Vd in [6] (plasma, 1 mg/kg iv, read-out: Vss) was 2.3 L/kg. For the same compound, the AUC in [6] (plasma, 3 mg/kg po) worked out at 9 µM·h. In addition, in [6] (plasma, 3 mg/kg po), the peak level (Cmax) was 700 nM. In addition, the Tmax in [6] (plasma, 3 mg/kg po) stood at 1.33 h. The “AEs in seizure liability assay” value in data set [11] (56.6 mg/kg IP, mice, result in words) is listed as “negligible AEs”. For the same compound, the Racine scale scores result in [11] (100 mg/kg IP, mice) is listed as “less than 2”. In data set [11] (56.6 and 100 mg/kg, i.p., 360 min, male C57Bl/6 mice, result in words), the “AEs in Racine score test” value was “minimal AEs at 60 min postadministration with a lack of AEs observed at 6 h”.
